Source: ChEMBL document CHEMBL5465560, “Selectivity Literature for EUbOPEN Chemogenomic Library” (2024)
Values belong to the compound of their own block, whether it stands above or below them.

Tests used:
[1] = target: T1, Bone morphogenetic protein receptor type-2 (Homo sapiens) (UniProt Q13873); details: at 10 µM
T1 sequence (whole entry): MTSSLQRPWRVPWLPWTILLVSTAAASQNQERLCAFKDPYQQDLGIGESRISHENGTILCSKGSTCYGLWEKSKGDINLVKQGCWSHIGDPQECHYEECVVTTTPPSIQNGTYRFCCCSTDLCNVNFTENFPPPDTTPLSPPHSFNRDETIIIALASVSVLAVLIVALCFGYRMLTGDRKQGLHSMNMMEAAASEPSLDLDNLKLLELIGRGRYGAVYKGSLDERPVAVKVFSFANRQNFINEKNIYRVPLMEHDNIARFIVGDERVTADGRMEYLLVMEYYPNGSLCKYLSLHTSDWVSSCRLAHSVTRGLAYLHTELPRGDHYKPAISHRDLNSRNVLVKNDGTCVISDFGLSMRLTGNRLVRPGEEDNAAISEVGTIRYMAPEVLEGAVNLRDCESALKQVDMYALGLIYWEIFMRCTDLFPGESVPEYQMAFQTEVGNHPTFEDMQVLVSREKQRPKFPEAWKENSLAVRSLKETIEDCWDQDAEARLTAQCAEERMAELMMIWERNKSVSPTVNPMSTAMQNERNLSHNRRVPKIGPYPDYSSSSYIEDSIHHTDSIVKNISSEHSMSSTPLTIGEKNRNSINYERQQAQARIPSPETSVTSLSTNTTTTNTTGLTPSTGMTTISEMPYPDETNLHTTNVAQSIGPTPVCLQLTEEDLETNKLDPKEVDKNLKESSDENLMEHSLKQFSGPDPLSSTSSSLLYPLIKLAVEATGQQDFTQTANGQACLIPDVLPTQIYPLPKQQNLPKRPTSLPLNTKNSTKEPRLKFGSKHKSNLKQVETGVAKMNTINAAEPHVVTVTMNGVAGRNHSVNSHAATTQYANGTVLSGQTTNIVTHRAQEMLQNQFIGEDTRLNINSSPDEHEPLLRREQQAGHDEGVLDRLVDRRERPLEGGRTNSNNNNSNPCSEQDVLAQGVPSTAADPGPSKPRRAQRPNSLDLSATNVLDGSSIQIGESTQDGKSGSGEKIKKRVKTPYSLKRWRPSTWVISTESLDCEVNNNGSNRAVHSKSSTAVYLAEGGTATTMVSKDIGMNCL

[2] = target: T2, Cytoplasmic tyrosine-protein kinase BMX (Homo sapiens) (UniProt P51813); assay: Selectivity interaction (KinaseProfiler screening (Millipore)) EUB0000601a BMX; details: at 3 µM
T2 sequence (whole entry): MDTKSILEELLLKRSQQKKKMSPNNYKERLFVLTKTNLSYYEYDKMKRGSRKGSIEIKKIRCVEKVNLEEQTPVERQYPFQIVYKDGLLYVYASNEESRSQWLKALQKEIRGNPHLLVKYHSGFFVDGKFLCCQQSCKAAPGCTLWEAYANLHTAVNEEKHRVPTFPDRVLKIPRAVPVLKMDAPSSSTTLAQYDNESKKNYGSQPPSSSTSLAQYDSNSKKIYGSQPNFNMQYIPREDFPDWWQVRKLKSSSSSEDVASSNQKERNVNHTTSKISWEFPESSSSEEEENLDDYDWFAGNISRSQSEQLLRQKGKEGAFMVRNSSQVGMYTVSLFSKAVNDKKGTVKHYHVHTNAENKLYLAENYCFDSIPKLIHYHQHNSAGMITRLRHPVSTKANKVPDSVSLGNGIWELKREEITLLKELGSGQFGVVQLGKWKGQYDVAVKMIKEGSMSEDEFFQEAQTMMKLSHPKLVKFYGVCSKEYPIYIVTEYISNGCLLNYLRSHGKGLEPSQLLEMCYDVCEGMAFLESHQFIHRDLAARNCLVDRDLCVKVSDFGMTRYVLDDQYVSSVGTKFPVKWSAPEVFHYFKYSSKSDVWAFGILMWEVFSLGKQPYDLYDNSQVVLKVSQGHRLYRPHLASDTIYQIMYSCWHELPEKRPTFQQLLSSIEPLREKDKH

[3] = target: T3, Interleukin-1 receptor-associated kinase 3 (Homo sapiens) (UniProt Q9Y616); assay: Selectivity interaction (ActivX KiNativ screen (kinase selectivity in THP-1 cell lysates)) EUB0000639a IRAK3; assay type: subcellular; details: lysate, at 0.2 µM
T3 sequence (whole entry): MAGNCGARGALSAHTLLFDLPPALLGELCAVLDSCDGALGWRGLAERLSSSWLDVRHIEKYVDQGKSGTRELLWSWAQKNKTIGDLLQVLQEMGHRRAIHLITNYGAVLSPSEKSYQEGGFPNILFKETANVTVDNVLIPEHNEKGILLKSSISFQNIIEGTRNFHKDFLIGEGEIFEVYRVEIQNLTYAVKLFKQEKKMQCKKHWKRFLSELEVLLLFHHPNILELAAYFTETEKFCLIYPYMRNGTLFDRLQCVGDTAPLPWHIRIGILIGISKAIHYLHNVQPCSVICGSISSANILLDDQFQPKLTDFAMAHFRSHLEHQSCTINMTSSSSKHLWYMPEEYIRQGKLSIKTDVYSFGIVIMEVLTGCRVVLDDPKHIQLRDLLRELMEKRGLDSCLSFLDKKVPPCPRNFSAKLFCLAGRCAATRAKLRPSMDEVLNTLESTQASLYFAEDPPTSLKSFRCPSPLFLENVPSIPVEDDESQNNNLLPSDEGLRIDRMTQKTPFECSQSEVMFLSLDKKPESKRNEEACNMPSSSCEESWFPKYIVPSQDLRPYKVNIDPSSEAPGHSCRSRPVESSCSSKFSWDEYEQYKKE

[4] = target: Calcium/calmodulin-dependent protein kinase kinase 2 (Homo sapiens) (UniProt Q96RR4); assay: Selectivity interaction (LanthaScreen Eu Kinase Binding Assay) EUB0001632a CAMKK2; details: at 10 µM
Chain of Calcium/calmodulin-dependent protein kinase kinase 2 (Homo sapiens) (Q96RR4 2-588 limits assumed): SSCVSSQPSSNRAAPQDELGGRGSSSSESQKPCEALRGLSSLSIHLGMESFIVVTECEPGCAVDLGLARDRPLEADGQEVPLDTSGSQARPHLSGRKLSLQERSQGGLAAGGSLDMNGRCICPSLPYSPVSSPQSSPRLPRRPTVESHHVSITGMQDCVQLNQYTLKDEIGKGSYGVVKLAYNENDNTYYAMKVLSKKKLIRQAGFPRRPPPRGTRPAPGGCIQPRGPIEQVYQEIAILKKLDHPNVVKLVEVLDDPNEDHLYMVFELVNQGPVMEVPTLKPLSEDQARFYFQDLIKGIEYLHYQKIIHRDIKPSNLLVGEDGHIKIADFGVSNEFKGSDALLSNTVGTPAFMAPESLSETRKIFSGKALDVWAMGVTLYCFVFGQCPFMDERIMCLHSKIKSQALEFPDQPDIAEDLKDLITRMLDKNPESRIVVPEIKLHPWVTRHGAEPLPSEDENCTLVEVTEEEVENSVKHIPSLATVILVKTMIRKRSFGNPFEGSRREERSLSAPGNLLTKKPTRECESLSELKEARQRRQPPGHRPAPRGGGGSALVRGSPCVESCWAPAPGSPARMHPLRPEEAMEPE

[5] = target: Calcium/calmodulin-dependent protein kinase kinase 1 (Homo sapiens) (UniProt Q8N5S9); details: at 10 µM
Chain of Calcium/calmodulin-dependent protein kinase kinase 1 (Homo sapiens) (Q8N5S9 whole entry, looked up): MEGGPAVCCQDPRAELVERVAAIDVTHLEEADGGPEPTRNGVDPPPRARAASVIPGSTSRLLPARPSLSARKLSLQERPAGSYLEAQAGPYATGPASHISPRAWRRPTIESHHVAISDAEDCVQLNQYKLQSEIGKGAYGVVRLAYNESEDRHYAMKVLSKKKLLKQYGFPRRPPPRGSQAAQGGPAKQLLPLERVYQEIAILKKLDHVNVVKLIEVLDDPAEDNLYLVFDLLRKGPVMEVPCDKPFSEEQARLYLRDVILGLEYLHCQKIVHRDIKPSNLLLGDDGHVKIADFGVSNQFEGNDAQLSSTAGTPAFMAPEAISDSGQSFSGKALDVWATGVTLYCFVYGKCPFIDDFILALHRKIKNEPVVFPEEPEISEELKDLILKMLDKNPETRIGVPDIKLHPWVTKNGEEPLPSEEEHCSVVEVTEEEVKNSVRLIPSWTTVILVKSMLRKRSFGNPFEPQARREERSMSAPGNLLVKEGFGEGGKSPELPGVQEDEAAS

[6] = target: Cyclin-dependent kinase 11B (Homo sapiens) (UniProt P21127); assay: Selectivity interaction (KinomeScan (DiscoverX)) EUB0000229b CDK11B; details: at 10 µM
Chain of Cyclin-dependent kinase 11B (Homo sapiens) (P21127 whole entry): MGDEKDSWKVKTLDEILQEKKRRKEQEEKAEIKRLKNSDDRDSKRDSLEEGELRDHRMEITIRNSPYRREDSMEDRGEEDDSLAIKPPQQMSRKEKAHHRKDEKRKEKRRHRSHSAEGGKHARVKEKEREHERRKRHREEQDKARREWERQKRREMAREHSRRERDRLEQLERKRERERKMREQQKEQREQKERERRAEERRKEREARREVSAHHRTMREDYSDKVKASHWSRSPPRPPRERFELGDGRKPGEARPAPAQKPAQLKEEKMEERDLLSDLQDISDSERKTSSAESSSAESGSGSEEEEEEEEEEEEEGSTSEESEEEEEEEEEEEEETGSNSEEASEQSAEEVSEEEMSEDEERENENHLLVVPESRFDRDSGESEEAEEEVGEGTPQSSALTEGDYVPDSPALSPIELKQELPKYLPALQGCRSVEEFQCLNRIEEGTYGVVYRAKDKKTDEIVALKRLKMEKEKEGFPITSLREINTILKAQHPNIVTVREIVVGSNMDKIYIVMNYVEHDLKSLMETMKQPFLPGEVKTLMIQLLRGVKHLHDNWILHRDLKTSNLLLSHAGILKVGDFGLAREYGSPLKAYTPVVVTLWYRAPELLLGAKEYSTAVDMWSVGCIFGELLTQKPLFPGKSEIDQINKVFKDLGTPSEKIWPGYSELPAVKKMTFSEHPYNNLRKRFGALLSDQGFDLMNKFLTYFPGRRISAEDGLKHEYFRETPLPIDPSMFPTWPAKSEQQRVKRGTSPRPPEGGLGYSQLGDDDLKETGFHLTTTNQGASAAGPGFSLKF

[7] = target: Dual specificity protein kinase CLK4 (Homo sapiens, UniProt Q9HAZ1); assay: Selectivity interaction (KinomeScan (DiscoverX)) EUB0001079a CLK4; details: at 1 µM
Chain of Dual specificity protein kinase CLK4 (Q9HAZ1 whole entry, looked up): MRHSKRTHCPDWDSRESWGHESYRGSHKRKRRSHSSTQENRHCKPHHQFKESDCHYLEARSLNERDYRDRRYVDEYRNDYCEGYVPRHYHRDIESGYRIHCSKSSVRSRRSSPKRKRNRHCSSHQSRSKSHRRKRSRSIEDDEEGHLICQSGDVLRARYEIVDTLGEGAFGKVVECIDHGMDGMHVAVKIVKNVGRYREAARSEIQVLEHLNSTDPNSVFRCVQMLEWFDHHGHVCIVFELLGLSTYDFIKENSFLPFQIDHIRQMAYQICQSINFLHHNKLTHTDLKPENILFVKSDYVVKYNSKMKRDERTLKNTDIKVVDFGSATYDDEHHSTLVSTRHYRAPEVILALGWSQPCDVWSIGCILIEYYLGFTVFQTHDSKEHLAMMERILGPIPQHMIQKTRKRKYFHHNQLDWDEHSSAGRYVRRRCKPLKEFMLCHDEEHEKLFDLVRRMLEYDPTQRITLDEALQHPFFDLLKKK

[8] = target: Dual specificity tyrosine-phosphorylation-regulated kinase 1A (Homo sapiens, UniProt Q13627); assay: Selectivity interaction (KinomeScan (DiscoverX)) EUB0000092b DYRK1A; details: at 10 µM
[9] = target: Transient receptor potential cation channel subfamily M member 6 (Homo sapiens) (UniProt Q9BX84); assay: Selectivity interaction (KinomeScan (DiscoverX)) EUB0000045b TRPM6
Chain of Transient receptor potential cation channel subfamily M member 6 (Homo sapiens) (Q9BX84 whole entry): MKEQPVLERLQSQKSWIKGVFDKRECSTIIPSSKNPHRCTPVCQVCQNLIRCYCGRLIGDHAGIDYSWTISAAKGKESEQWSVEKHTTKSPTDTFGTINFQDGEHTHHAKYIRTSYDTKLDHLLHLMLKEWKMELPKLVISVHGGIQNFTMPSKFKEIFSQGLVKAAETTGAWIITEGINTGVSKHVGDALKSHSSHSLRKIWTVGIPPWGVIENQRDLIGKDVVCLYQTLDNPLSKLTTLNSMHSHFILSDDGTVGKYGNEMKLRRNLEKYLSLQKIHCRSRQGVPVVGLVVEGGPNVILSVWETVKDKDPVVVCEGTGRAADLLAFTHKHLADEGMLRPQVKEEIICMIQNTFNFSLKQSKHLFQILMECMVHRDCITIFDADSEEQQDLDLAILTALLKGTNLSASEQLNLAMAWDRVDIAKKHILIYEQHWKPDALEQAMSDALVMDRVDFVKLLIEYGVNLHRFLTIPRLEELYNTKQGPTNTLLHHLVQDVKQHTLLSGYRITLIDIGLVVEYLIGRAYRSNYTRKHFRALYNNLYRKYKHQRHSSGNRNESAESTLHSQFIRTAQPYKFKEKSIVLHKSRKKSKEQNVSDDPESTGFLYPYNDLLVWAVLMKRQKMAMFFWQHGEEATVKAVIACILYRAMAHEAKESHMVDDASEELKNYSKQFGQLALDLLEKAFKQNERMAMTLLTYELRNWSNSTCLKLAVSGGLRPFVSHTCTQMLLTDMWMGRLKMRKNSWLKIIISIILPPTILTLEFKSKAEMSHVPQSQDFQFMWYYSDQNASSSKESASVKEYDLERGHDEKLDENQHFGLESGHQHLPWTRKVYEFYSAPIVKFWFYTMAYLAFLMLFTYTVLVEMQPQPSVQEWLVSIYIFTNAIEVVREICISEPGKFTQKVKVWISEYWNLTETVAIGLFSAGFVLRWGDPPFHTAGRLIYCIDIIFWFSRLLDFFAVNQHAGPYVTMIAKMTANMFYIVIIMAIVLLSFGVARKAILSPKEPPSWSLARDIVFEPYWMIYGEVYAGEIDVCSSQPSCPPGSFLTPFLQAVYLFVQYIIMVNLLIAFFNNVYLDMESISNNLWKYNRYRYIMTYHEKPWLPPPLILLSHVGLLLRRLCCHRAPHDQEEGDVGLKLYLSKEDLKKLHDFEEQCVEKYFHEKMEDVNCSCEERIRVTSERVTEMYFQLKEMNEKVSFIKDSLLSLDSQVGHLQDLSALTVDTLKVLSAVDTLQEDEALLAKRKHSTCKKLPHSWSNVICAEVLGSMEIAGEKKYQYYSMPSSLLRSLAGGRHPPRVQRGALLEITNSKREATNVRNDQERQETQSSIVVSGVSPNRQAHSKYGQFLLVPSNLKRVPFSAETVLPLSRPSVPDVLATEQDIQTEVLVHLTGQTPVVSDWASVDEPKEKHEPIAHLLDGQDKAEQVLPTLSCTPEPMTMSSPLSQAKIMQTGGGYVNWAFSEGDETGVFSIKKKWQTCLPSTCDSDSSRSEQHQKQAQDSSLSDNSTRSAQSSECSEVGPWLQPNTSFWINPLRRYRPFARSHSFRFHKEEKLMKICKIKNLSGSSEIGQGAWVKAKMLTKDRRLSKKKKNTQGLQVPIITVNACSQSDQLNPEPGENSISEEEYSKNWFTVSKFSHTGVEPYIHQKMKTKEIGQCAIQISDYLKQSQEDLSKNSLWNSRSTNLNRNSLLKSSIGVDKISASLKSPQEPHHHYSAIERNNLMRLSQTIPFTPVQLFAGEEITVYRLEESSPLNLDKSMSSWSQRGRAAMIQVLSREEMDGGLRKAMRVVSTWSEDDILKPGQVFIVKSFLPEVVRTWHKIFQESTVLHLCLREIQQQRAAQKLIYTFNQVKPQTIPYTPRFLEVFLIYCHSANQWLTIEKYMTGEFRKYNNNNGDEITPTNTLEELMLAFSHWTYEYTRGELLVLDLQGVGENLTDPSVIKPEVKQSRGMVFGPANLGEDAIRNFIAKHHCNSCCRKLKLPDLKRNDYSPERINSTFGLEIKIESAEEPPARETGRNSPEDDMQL

[10] = target: Mitogen-activated protein kinase kinase kinase 8 (Homo sapiens, UniProt P41279); assay: Selectivity interaction (SelectScreen profiling (Invitrogen)) EUB0000607a MAP3K8; details: at 2 µM
Chain of Mitogen-activated protein kinase kinase kinase 8 (P41279 whole entry): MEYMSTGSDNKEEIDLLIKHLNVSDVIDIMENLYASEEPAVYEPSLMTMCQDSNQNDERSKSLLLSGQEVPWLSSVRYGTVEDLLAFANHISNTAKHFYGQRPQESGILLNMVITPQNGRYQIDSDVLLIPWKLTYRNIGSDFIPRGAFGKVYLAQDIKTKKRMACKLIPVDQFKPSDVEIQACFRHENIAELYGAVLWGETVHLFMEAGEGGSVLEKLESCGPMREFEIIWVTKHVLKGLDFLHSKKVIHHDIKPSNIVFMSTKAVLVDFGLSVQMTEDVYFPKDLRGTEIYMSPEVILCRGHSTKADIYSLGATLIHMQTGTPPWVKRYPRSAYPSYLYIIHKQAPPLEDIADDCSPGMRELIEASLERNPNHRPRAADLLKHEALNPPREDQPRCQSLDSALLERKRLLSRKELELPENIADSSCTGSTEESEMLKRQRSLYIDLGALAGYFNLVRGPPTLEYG

SMILES: Cc1cc([C@@H](C)Nc2ccccc2C(=O)O)c2nc(N3CCOCC3)cc(=O)n2c1 [AZD-6482]
% of control [1]: 69%

% of inhibition [2]: 71%
SMILES: CCc1cc(Nc2nccc(-c3c(-c4ccc(OC)c(C(=O)Nc5c(F)cccc5F)c4)nc4ccccn34)n2)c(OC)cc1N1CCC(N2CCN(S(C)(=O)=O)CC2)CC1

% of inhibition [3]: 34%
SMILES: CC[C@@H]1[C@H](F)C(=O)N[C@@H]1COc1nccc2cc(C(N)=O)c(OC)cc12 [ZIMLOVISERTIB]

% of inhibition [4]: -0.213%
SMILES: Cn1cc(-n2cnc3c(NCc4nc5cc(Cl)c(Cl)cc5[nH]4)nc(N4CCOCC4)nc32)cn1

% of control [5]: 100%
SMILES: CCN(CC)CCCCNc1ncc2cc(-c3cc(OC)cc(OC)c3)c(NC(=O)NC(C)(C)C)nc2n1

SMILES: COc1cc(N(C)c2ccnc3ccc(C(F)(F)F)cc23)cc(OC)c1OC
% binding [6]: 85%

SMILES: Nc1cnc(N2CCc3cc(S(=O)(=O)Nc4c(F)cc(Cl)cc4F)cc(N4CCCC4=O)c32)nc1 [TP-020n]
% of control [7]: 89%

SMILES: CCC(=O)N1CCN(c2ccc(-n3c(=O)ccc4cnc5ccc(-c6cnc7ccccc7c6)cc5c43)cc2C(F)(F)F)CC1
% of control [8]: 71%

SMILES: C=CC(=O)Nc1cc(-n2c(=O)ccc3cnc4ccc(-c5ccc(NS(C)(=O)=O)cc5)cc4c32)ccc1C
% of control ([9]; at 1 µM): 100%
% of control ([9]; at 10 µM): 100%

SMILES: CNC(=O)Nc1ccc(-c2nc(N3CC4CCC(C3)O4)c3cnn(C4CCC5(CC4)OCCO5)c3n2)cc1
% of inhibition [10]: 1%
